Laboratory results as given in ChEMBL document CHEMBL3039007, “Structure-based identification of OATP1B1/3 inhibitors” (Mol Pharmacol, 2013).

Legend:
[1] = target: T1, Solute carrier organic anion transporter family member 1B3 (Homo sapiens, UniProt Q9NPD5); conditions: chinese hamster, cho, 10 µM
T1 sequence (Q9NPD5 whole entry): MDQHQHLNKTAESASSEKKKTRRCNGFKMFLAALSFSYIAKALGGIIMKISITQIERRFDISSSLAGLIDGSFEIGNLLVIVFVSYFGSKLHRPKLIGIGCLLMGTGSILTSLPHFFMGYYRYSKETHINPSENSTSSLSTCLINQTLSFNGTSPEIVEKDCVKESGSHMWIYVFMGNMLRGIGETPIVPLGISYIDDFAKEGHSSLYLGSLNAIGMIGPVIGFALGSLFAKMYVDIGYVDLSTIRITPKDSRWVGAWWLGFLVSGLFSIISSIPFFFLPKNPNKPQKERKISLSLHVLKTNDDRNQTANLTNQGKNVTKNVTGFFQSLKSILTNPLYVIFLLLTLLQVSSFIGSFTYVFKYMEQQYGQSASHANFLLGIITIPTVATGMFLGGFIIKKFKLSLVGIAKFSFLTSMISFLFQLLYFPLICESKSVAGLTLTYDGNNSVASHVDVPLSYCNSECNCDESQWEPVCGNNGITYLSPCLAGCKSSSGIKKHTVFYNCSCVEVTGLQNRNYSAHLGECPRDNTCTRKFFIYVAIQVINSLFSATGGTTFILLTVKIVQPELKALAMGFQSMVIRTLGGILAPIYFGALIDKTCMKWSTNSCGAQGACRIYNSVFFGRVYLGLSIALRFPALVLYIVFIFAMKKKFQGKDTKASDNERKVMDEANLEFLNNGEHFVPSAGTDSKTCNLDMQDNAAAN

[2] = target: T2, Solute carrier organic anion transporter family member 1B1 (Homo sapiens, UniProt Q9Y6L6); conditions: chinese hamster, cho, 10 µM
T2 sequence (Q9Y6L6 whole entry): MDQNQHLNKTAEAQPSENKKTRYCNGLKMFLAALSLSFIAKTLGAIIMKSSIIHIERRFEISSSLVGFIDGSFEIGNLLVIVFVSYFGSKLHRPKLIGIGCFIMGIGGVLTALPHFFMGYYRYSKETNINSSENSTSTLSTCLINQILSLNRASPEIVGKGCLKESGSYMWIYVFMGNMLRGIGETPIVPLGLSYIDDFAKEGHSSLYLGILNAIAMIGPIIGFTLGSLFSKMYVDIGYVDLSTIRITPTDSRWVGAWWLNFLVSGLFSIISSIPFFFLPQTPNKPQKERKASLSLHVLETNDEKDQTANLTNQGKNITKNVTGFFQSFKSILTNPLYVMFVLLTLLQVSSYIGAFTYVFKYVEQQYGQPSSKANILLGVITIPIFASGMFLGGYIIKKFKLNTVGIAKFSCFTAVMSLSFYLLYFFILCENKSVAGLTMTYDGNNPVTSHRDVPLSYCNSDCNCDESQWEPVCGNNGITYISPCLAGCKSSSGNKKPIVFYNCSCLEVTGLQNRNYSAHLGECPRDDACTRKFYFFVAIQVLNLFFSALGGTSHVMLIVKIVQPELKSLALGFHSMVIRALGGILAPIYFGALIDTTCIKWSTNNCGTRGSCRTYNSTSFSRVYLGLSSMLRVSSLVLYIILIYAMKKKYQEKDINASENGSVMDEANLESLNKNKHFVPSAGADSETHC

Structure (SMILES) | residual activity [1] [%] | residual activity [2] [%]
Cc1ccccc1C(OCCN(C)C)c1ccccc1.O=C(O)CC(O)(CC(=O)O)C(=O)O (stereo not drawn) [ORPHENADRINE CITRATE] | 96.44 | 87.55
CCOC(=O)c1c(C)cc(O)cc1O [ORSELLINIC ACID, ETHYL ESTER] | 105.8 | 116.8
Cc1cc(O)cc(O)c1C(=O)O [ORSELLINIC ACID] | 86.96 | 66.07
Cc1ccc(C(C)C)c(O)c1C(=O)O [ORTHOTHYMOTINIC ACID] | 82.08 | 75.5
CC(C)=CCc1c2c(c3occ(-c4ccc(O)cc4)c(=O)c3c1O)C=CC(C)(C)O2 [OSAJIN] | 88.68 | 112.9
COc1ccc2ccc(=O)oc2c1CC=C(C)C [OSTHOLE] | 121.3 | 227.1
C[C@@H]1O[C@@H](O[C@H]2C[C@@H](O)[C@]3(CO)[C@H]4[C@H](O)C[C@]5(C)[C@@H](C6=CC(=O)OC6)CC[C@]5(O)[C@@H]4CC[C@]3(O)C2)[C@H](O)[C@H](O)[C@H]1O [OUABAIN] | 98.13 | 108.1
NC(=O)N1c2ccccc2CC(=O)c2ccccc21 [OXCARBAZEPINE] | 85.1 | 71.5
CC[S+]([O-])CCSP(=O)(OC)OC (stereo not drawn) [OXDEMETONMETHYL] | 94.08 | 116.8
COC(=O)Nc1nc2ccc([S+]([O-])c3ccccc3)cc2[nH]1 (stereo not drawn) [OXFENDAZOLE] | 114.2 | 95.15
CCCOc1ccc2nc(NC(=O)OC)[nH]c2c1 [OXIBENDAZOLE] | 119.5 | 102.5
Clc1ccc(CO/N=C(\Cn2ccnc2)c2ccc(Cl)cc2Cl)c(Cl)c1.O=[N+]([O-])O [OXICONAZOLE NITRATE] | 122.3 | 116
Cl.NCCc1cc(O)c(O)cc1O [OXIDOPAMINE HYDROCHLORIDE] | 100.5 | 80.99
CCn1cc(C(=O)O)c(=O)c2cc3c(cc21)OCO3 [OXOLINIC ACID] | 87.39 | 55.65
O=C1CCCN1CC#CCN1CCCC1 [OXOTREMORINE] | 82.72 | 95.24
COc1ccc(C(=O)c2ccccc2)c(O)c1 [OXYBENZONE] | 128.4 | 225.4
Cc1cc(C(C)(C)C)c(O)c(C)c1CC1=NCCN1.Cl [OXYMETAZOLINE HYDROCHLORIDE] | 104.7 | 95.6
CCCCC1C(=O)N(c2ccccc2)N(c2ccc(O)cc2)C1=O (stereo not drawn) [OXYPHENBUTAZONE ANHYDROUS] | 83.15 | 42.04
CN1CCCN=C1COC(=O)C(O)(c1ccccc1)C1CCCCC1.Cl (stereo not drawn) [OXYPHENCYCLIMINE HYDROCHLORIDE] | 103.9 | 92.1
CN(C)[C@@H]1C(O)=C(C(N)=O)C(=O)[C@@]2(O)C(O)=C3C(=O)c4c(O)cccc4[C@@](C)(O)[C@H]3[C@H](O)[C@@H]12 [OXYTETRACYCLINE] | 95.2 | 61.86
COc1cc2c(cc1-c1cc3cc4ccoc4cc3oc1=O)OCO2 [PACHYRRIZINE] | 121.4 | 139.6
C[C@@]12C[C@@]3(O)O[C@@H](O1)[C@]1(COC(=O)c4ccccc4)[C@H]3C[C@@]12O[C@@H]1O[C@H](CO)[C@@H](O)[C@H](O)[C@H]1O [PAEONIFLORIN] | 101.8 | 109.5
COc1ccc(C(C)=O)c(O)c1 [PAEONOL] | 108.3 | 121.7
COc1cc2c(cc1OC)-c1cc3ccc(OC)c(OC)c3c[n+]1CC2.[Cl-] [PALMATINE CHLORIDE] | 97.62 | 110.1
COc1cc2c(cc1OC)-c1cc3ccc(OC)c(OC)c3c[n+]1CC2 [PALMITINE] | 102.6 | 78.6

Structure (SMILES) | residual activity [1] [%] | residual activity [2] [%]
COc1ccnc(C[S+]([O-])c2nc3ccc(OC(F)F)cc3[nH]2)c1OC (stereo not drawn) [PANTOPRAZOLE] | 79.12 | 81.37
COc1ccc(Cc2nccc3cc(OC)c(OC)cc23)cc1OC.Cl [PAPAVERINE HYDROCHLORIDE] | 113.7 | 266.9
Oc1ccc(Cl)cc1 [PARACHLOROPHENOL] | 100.4 | 89.66
N=C1C=CC(=C(c2ccc(N)cc2)c2ccc(N)cc2)C=C1.N=C1C=CC(=C(c2ccc(N)cc2)c2ccc(N)cc2)C=C1.O.O.O=C(O)c1cc2ccccc2c(Cc2c(O)c(C(=O)O)cc3ccccc23)c1O [PARAROSANILINE PAMOATE] | 144.5 | 66.86
Cn1c(=O)[nH]c2ncn(C)c2c1=O [PARAXANTHINE] | 88.58 | 94.78
C#CCN(C)Cc1ccccc1.Cl [PARGYLINE HYDROCHLORIDE] | 133.9 | 99.32
Cl.Cl.Fc1ccc([C@@H]2CCNC[C@H]2COc2ccc3c(c2)OCO3)cc1.Fc1ccc([C@@H]2CCNC[C@H]2COc2ccc3c(c2)OCO3)cc1.O [PAROXETINE HYDROCHLORIDE] | 76.07 | 96.74
O=C1C=C2C(=CCOC2O)O1 (stereo not drawn) [PATULIN] | 79.09 | 81.5
COc1ccc(-c2cc(=O)c3c(O)c(OC)c(O[C@@H]4O[C@H](CO[C@@H]5O[C@@H](C)[C@H](O)[C@@H](O)[C@H]5O)[C@@H](O)[C@H](O)[C@H]4O)cc3o2)cc1 [PECTOLINARIN] | 155.8 | 39.1
CCn1cc(C(=O)O)c(=O)c2cc(F)c(N3CCN(C)CC3)cc21.CS(=O)(=O)O [PEFLOXACIN MESYLATE] | 95.74 | 123.1
CC(=O)CC1CCCCN1.Cl (stereo not drawn) [PELLETIERINE HYDROCHLORIDE] | 95.02 | 75.96
CC(C)(S)[C@@H](N)C(=O)O [PENICILLAMINE] | 124 | 100.4
C=C(C)C1(O)OC(=O)C=C1OC (stereo not drawn) [PENICILLIC ACID] | 96.2 | 110.4
CC1(C)S[C@@H]2[C@H](NC(=O)COc3ccccc3)C(=O)N2[C@H]1C(=O)[O-].[K+] [PENICILLIN V POTASSIUM] | 108.8 | 91.66
Oc1c(Cl)c(Cl)c(Cl)c(Cl)c1Cl [PENTACHLOROPHENOL] | 40.68 | 19.96
CCCC(C)C1(CC)C(=O)NC(=O)NC1=O (stereo not drawn) [PENTOBARBITAL] | 94.07 | 94.35
CC(C)=CCOc1c2occc2cc2ccc(=O)oc12 [PENTOSALEN] | 131.4 | 222.8
CC(=O)CCCCn1c(=O)c2c(ncn2C)n(C)c1=O [PENTOXIFYLLINE] | 79.59 | 77.22
COc1ccc(C(C)=O)c(OC)c1 [PEONOL METHYL ETHER] | 99.54 | 105.9
CCCN1C[C@H](CSC)C[C@@H]2c3cccc4[nH]cc(c34)C[C@H]21.CS(=O)(=O)O [PERGOLIDE MESYLATE] | 85.27 | 90.15
C1CCC(C(CC2CCCCN2)C2CCCCC2)CC1.O=C(O)/C=C\C(=O)O (stereo not drawn) [PERHEXILINE MALEATE] | 92.29 | 68.81
N#Cc1ccc2c(c1)N(CCCN1CCC(O)CC1)c1ccccc1S2 [PERICIAZINE] | 117.1 | 132.5
C=C(C)[C@H]1CC=C(C(=O)O)CC1 [PERILLIC ACID (-)] | 105 | 102.2
C=C(C)[C@@H]1CC=C(CO)CC1 [PERILLYL ALCOHOL] | 91.29 | 84.39
